O=C([O-])/C=C/C(=O)O.[Na+]
solubility (mole fraction)
Conditions	283.15 K	293.15 K	303.15 K	313.15 K	323.15 K
in 1,4-dioxane	–	0.000152	0.000165	0.000185	0.000234
in acetone	–	2.81e-05	3.78e-05	4.83e-05	6.67e-05
in acetonitrile	4.79e-05	5.26e-05	5.58e-05	6.32e-05	7.05e-05
in ethanol	5.51e-05	6.4e-05	7.35e-05	8.74e-05	9.51e-05
in ethyl acetate	9.88e-05	0.000121	0.000167	0.000219	0.000284
in isobutanol	9.6e-06	1.26e-05	1.62e-05	2.36e-05	3.17e-05
in isopropanol	2.3e-05	3.02e-05	4.08e-05	5.16e-05	6.76e-05
in methanol	0.000417	0.000454	0.000495	0.000532	0.000572
in n-butanol	2.25e-05	4.63e-05	5.97e-05	7.6e-05	9.43e-05
in n-pentanol	3.44e-05	4.21e-05	4.93e-05	5.45e-05	6.5e-05
in n-propanol	4.82e-05	6.3e-05	7.13e-05	8.71e-05	0.000102
in water	0.00712	0.00908	0.0114	0.0138	0.0172

Source: BigSolDB 2.1
